Reference: publication doi:[…]/2021.10.07.463234v2 (biorxiv, 2021)
Structures can show the parent of a compound that is named as a salt.

Target: SARS-CoV-2 Mac1 (Severe acute respiratory syndrome coronavirus 2, UniProt P0DTD1)
Experiment: biochemical
Settings: for inhibition at 100 µM: read-out: %inhibition; for %inhibition: 100 µM, inhibitor

Row | SMILES | inhibition at 100 µM | %inhibition
1 | CS(=O)(=O)c1ccc([C@@H](O)[C@@H](CO)NC(=O)C(Cl)Cl)cc1 [Thiamphenicol] | 13.4% | 
2 | Nc1nc2[nH]cnc2c(=S)[nH]1 [Thioguanine] | 18.9% | 
3 | S=P(N1CC1)(N1CC1)N1CC1 [Thiotepa] | 21.5% | 
4 | Cc1ccc(C(C)C)c(O)c1 [Thymol] | 0.387% | 
5 | Cc1ccsc1C(=CCCN1CCC[C@@H](C(=O)O)C1)c1sccc1C [Tiagabine] | 9.64% | 
6 | CN1c2ccccc2C(NCCCCCCC(=O)O)c2ccc(Cl)cc2S1(=O)=O (stereo not drawn) [Tianeptine sodium] |  | 0%
7 | CN1c2ccccc2C(NCCCCCCC(=O)O)c2ccc(Cl)cc2S1(=O)=O (stereo not drawn) [Tianeptine] |  | 12.39%
8 | CC(C(=O)O)c1ccc(C(=O)c2ccccc2)s1 (stereo not drawn) [Tiaprofenic acid] | 26.3% | 
9 | CCCSc1nc(N[C@@H]2C[C@H]2c2ccc(F)c(F)c2)c2nnn([C@@H]3C[C@H](OCCO)[C@@H](O)[C@H]3O)c2n1 [Ticagrelor] | 6.12% | 
10 | CC1(C)S[C@@H]2[C@H](NC(=O)[C@H](C(=O)O)c3ccsc3)C(=O)N2[C@H]1C(=O)O [Ticarcillin sodium] | 7.19% | 
11 | Clc1ccccc1CN1CCc2sccc2C1 [Ticlopidine HCl] | 0.00536% | 
12 | O=c1sn(-c2cccc3ccccc23)c(=O)n1Cc1ccccc1 [Tideglusib] |  | 42.74%
13 | CN(C)c1cc(NC(=O)CNC(C)(C)C)c(O)c2c1C[C@H]1C[C@H]3[C@H](N(C)C)C(O)=C(C(N)=O)C(=O)[C@@]3(O)C(O)=C1C2=O [Tigecycline] | 0% | 
14 | CCNC1(c2cccs2)CCCCC1=O (stereo not drawn) [Tiletamine Hydrochloride] | 0% | 
15 | CC[C@H]1OC(=O)C[C@@H](O)[C@H](C)[C@@H](O[C@@H]2O[C@H](C)[C@@H](O)[C@H](N(C)C)[C@H]2O)[C@@H](CCN2C[C@H](C)C[C@H](C)C2)C[C@@H](C)C(=O)/C=C/C(C)=C/[C@@H]1CO[C@@H]1O[C@H](C)[C@@H](O)[C@@H](OC)[C@H]1OC [Tilmicosin phosphate] |  | 0%
16 | CC[C@H]1OC(=O)C[C@@H](O)[C@H](C)[C@@H](O[C@@H]2O[C@H](C)[C@@H](O)[C@H](N(C)C)[C@H]2O)[C@@H](CCN2C[C@H](C)C[C@H](C)C2)C[C@@H](C)C(=O)/C=C/C(C)=C/[C@@H]1CO[C@@H]1O[C@H](C)[C@@H](O)[C@@H](OC)[C@H]1OC [Tilmicosin] |  | 23.11%
17 | CC(C)(C)NC[C@H](O)COc1nsnc1N1CCOCC1 [Timolol Maleate] | 11.9% | 
18 | CCS(=O)(=O)CCn1c([N+](=O)[O-])cnc1C [Tinidazole] | 0% | 
19 | Clc1ccc(C(Cn2ccnc2)OCc2ccsc2Cl)c(Cl)c1 (stereo not drawn) [Tioconazole] | 7.13% | 
20 | CC(S)C(=O)NCC(=O)O (stereo not drawn) [Tiopronin] | 0% | 
21 | C[N+]1(C)[C@@H]2C[C@@H](OC(=O)C(O)(c3cccs3)c3cccs3)C[C@H]1[C@@H]1O[C@@H]12 [Tiotropium Bromide hydrate] | 19.5% | 
22 | O=c1oc2cc(O)ccc2s1 [Tioxolone] | 23.8% | 
23 | N=C1CCCN1Cc1[nH]c(=O)[nH]c(=O)c1Cl [Tipiracil hydrochloride] | 0% | 
24 | CCCCS(=O)(=O)N[C@@H](Cc1ccc(OCCCCC2CCNCC2)cc1)C(=O)O [Tirofiban Hydrochloride] | 9.42% | 
25 | O=C1NC(=O)[C@@H](c2cn3c4c(cccc24)CCC3)[C@@H]1c1c[nH]c2ccccc12 [Tivantinib (ARQ 197)] | 1.02% | 
26 | COc1cc2nccc(Oc3ccc(NC(=O)Nc4cc(C)on4)c(Cl)c3)c2cc1OC [Tivozanib (AV-951)] | 9.18% | 
27 | Clc1ccc2nsnc2c1NC1=NCCN1 [Tizanidine HCl] | 0% | 

Row | SMILES | inhibition at 100 µM | %inhibition
28 | NC[C@H]1O[C@H](O[C@H]2[C@H](O)[C@@H](O[C@H]3O[C@H](CO)[C@@H](O)[C@H](N)[C@H]3O)[C@H](N)C[C@@H]2N)[C@H](N)C[C@@H]1O [Tobramycin sulfate] |  | 7.872%
29 | NC[C@H]1O[C@H](O[C@H]2[C@H](O)[C@@H](O[C@H]3O[C@H](CO)[C@@H](O)[C@H](N)[C@H]3O)[C@H](N)C[C@@H]2N)[C@H](N)C[C@@H]1O [Tobramycin] |  | 0%
30 | CCc1ccc(Cc2ccc3c(c2)[C@]2(OC3)O[C@H](CO)[C@@H](O)[C@H](O)[C@H]2O)cc1 [Tofogliflozin(CSG 452)] | 1.23% | 
31 | c1ccc(CC2=NCCN2)cc1 [Tolazoline HCl] | 7.01% | 
32 | CCCCNC(=O)NS(=O)(=O)c1ccc(C)cc1 [Tolbutamide] | 0% | 
33 | Cc1ccc(C(=O)c2cc(O)c(O)c([N+](=O)[O-])c2)cc1 [Tolcapone] | 0% | 
34 | Cc1c(Cl)cccc1Nc1ccccc1C(=O)O [Tolfenamic Acid] | 16.4% | 
35 | Cc1ccc(C(=O)c2ccc(CC(=O)O)n2C)cc1 [Tolmetin Sodium] |  | 0.1982%
36 | Cc1ccc(C(=O)c2ccc(CC(=O)O)n2C)cc1 [Tolmetin] |  | 4.72%
37 | Cc1cccc(N(C)C(=S)Oc2ccc3ccccc3c2)c1 [Tolnaftate] | 0% | 
38 | Cc1ccc(C(=O)C(C)CN2CCCCC2)cc1 (stereo not drawn) [Tolperisone HCl] | 8.81% | 
39 | Cc1ccc(O)c([C@H](CCN(C(C)C)C(C)C)c2ccccc2)c1 [Tolterodine tartrate] | 34.1% | 
40 | Cc1cc(-n2c(=O)[nH]c(=O)n(C)c2=O)ccc1Oc1ccc(SC(F)(F)F)cc1 [Toltrazuril] | 0% | 
41 | Cc1ccccc1C(=O)Nc1ccc(C(=O)N2CCCC(O)c3cc(Cl)ccc32)c(C)c1 (stereo not drawn) [Tolvaptan] | 10.6% | 
42 | CC1(C)O[C@@H]2[C@@H](CO[C@@]3(COS(N)(=O)=O)OC(C)(C)O[C@@H]23)O1 [Topiramate] | 0% | 
43 | N#Cc1cc(-c2n[nH]c(-c3ccncc3)n2)ccn1 [Topiroxostat] | 0% | 
44 | CC[C@@]1(O)C(=O)OCc2c1cc1n(c2=O)Cc2cc3c(CN(C)C)c(O)ccc3nc2-1 [Topotecan HCl] | 24.2% | 
45 | CN(C)CCOc1ccc(/C(=C(/CCCl)c2ccccc2)c2ccccc2)cc1 [Toremifene Citrate] | 21.7% | 
46 | Cc1cccc(Nc2ccncc2S(=O)(=O)NC(=O)NC(C)C)c1 [Torsemide] | 15.1% | 
47 | Cc1cc(Nc2cc(N3CCN(C)CC3)nc(Sc3ccc(NC(=O)C4CC4)cc3)n2)n[nH]1 [Tozasertib (VX-680, MK-0457)] | 33.2% | 
48 | CC(=O)Nc1cccc(-n2c(=O)n(C3CC3)c(=O)c3c(Nc4ccc(I)cc4F)n(C)c(=O)c(C)c32)c1 [Trametinib (GSK1120212)] | 3.49% | 
49 | COc1ccc(/C=C/C(=O)Nc2ccccc2C(=O)O)cc1OC [Tranilast] | 0% | 
50 | N[C@H]1C[C@@H]1c1ccccc1 [Tranylcypromine (2-PCPA) HCl] | 0% | 
51 | CC(C)OC(=O)CCC/C=C\C[C@@H]1[C@@H](/C=C/[C@@H](O)COc2cccc(C(F)(F)F)c2)[C@H](O)C[C@@H]1O [Travoprost] | 0% | 
52 | Cn1c(=O)cc(N2CCC[C@@H](N)C2)n(Cc2cc(F)ccc2C#N)c1=O [Trelagliptin succinate] |  | 24.59%
53 | Cn1c(=O)cc(N2CCC[C@@H](N)C2)n(Cc2cc(F)ccc2C#N)c1=O [Trelagliptin] |  | 0%
54 | CC1=C(/C=C/C(C)=C/C=C/C(C)=C/C(=O)O)C(C)(C)CCC1 [Tretinoin] | 0% | 
